Experimental data published in patent US5639884A, “Arylidene-heterocyclic derivatives and process for their preparation” (Farmitalia Carlo Erba S.r.l., priority 1991, dated 1997).
pIC50: −log10 of the molar value.

Each compound was assayed against p45 v-abl tyrosine kinase (assay: Exogenous Substrate Kinase Assay: p45 v-abl kinase inhibition). Conditions: (Val^5)-Angiotensin II phosphorylation; 40 ng abl-kinase; peptide 2 mM, ATP 50 μM; pH 8.0, 30° C.; triplicate determinations.
Assay type: biochemical, Abelson murine leukemia virus
Source text: Tyrosine kinase purification. The enzyme used in our test was the p45 v-abl tyrosine kinase which represents the catalytic domaine of the Abelson tyrosine kinase (isolated from the Abelson murine leukemia virus). The p45 v-abl kinase was produced and isolated as described by Wang et al. in J. Biol. Chem. 260, 64 (1985) and by Ferguson et al. in J. Biol. Chem. 260, 3652 (1985) and in Biochem. J. 257, 321 (1989).
Exogenous Substrate Kinase Assay. (Val^5)-Angiotensin II phosphorylation was performed by incubation with 40 ng of purified abl-kinase and (γ-^32 P)-ATP, in 50 μl of buffer containing Tris-HCl 25 mM, pH 8.0, MgCl2 10 mM and dithiothreitol 0.1 mM (kinase buffer). The reaction mixture was incubated for the indicated time at 30° C. and the reaction stopped by adding 50 μl of 5% trichloroacetic acid. After a brief incubation on ice, tubes were centrifuged. The supernatants were spotted on phosphocellulose paper squares (Whatman P-81) and washed extensively in acetic acid. The radioactivity bound to dried phosphocellulose squares was measured in a liquid scintillation counter. IC50 values were calculated from triplicate determinations of each experimental point. Each inhibitor was tested at concentrations ranging from […] in the presence of fixed concentrations of peptide (2 mM) and ATP (50 μM).
With `O=C1NC(=O)c2ccccc2C1=Cc1ccnc2ccccc12` [4-(4'-quinolyl)methylenehomophthalimide, (E,Z) -4-(4'-quinolyl)-methylenehomophthalimide] the pIC50 was 4.82. `O=S1(=O)Nc2ccccc2C1=Cc1c[nH]c2ccccc12` [(E,Z)-3-(3'-indolyl)methylene-2,1-benzisothiazoline-2,2-dioxide] showed a pIC50 of 3.95. For `O=S1(=O)Nc2ccccc2C1=Cc1ccc(O)cc1` [(E,Z)-3-(4'-hydroxyphenyl)methylene-2,1-benzisothiazoline-2,2-dioxide], the pIC50 was 4.77. `O=C1NC(=O)c2ccccc2C1=Cc1ccc(O)cc1` [(E,Z)-4-(4'-hydroxyphenyl)methylenehomophthalimide] showed a pIC50 of 5.30.
